Measured values: ChEMBL document CHEMBL2440076, “New triarylpyrazoles as broad-spectrum anticancer agents: design, synthesis, and biological evaluation” (Eur J Med Chem, 2013)

Key:
Type in all cases: functional
LOX IMVI = assay: Growth inhibition of human LOXIMVI cells assessed as cell growth at 10^-6 M after 48 hrs by sulforhodamine B assay; details: read-out: Activity
MOLT-4 [1] = assay: Growth inhibition of human MOLT4 cells assessed as cell growth at 10^-5 M after 48 hrs by sulforhodamine B assay; details: MOLT-4, 48 h, read-out: Activity
Malme-3M [2] = assay: Growth inhibition of human MALME-3M cells assessed as cell growth at 10^-4 M after 48 hrs by sulforhodamine B assay; details: read-out: Activity
OVCAR-8 [3] = assay: Growth inhibition of human OVCAR8 cells assessed as cell growth at 10^-7 M after 48 hrs by sulforhodamine B assay; details: OVCAR-8, 48 h, read-out: Activity
MDA-MB-231 = assay: Growth inhibition of human MDA-MB-231 cells assessed as cell growth at 10^-7 M after 48 hrs by sulforhodamine B assay; details: MDA-MB-231, 48 h, read-out: Activity
MDA-MB-468 [4] = assay: Growth inhibition of human MDA-MB-468 cells assessed as cell growth at 10^-7 M after 48 hrs by sulforhodamine B assay; details: MDA-MB-468, 48 h, read-out: Activity
RXF 393 [5] = assay: Growth inhibition of human RXF393 cells assessed as cell growth at 10^-4 M after 48 hrs by sulforhodamine B assay; details: RXF 393, 48 h, read-out: Activity
[6] = Growth inhibition of human NCI-ADR-RES cells assessed as cell growth at 10^-8 M after 48 hrs by sulforhodamine B assay; details: read-out: Activity
MDA-MB-468 [7] = assay: Growth inhibition of human MDA-MB-468 cells assessed as cell growth at 10^-6 M after 48 hrs by sulforhodamine B assay; details: MDA-MB-468, 48 h, read-out: Activity
NCI-H522 = assay: Growth inhibition of human NCI-H522 cells assessed as cell growth at 10^-6 M after 48 hrs by sulforhodamine B assay; details: NCI-H522, 48 h, read-out: Activity
PC-3 = assay: Growth inhibition of human PC3 cells assessed as cell growth at 10^-8 M after 48 hrs by sulforhodamine B assay; details: PC-3, 48 h, read-out: Activity
MOLT-4 [8] = assay: Growth inhibition of human MOLT4 cells assessed as cell growth at 10^-4 M after 48 hrs by sulforhodamine B assay; details: MOLT-4, 48 h, read-out: Activity
TK-10 = assay: Growth inhibition of human TK10 cells assessed as cell growth at 10^-5 M after 48 hrs by sulforhodamine B assay; details: TK-10, 48 h, read-out: Activity
HOP-62 [9] = assay: Growth inhibition of human HOP62 cells assessed as cell growth at 10^-7 M after 48 hrs by sulforhodamine B assay; details: HOP-62, 48 h, read-out: Activity
NCI-H460 = assay: Growth inhibition of human NCI-H460 cells assessed as cell growth at 10^-6 M after 48 hrs by sulforhodamine B assay; details: NCI-H460, 48 h, read-out: Activity
[10] = Growth inhibition of human HCC2998 cells assessed as cell growth at 10^-8 M after 48 hrs by sulforhodamine B assay; details: HCC 2998, 48 h, read-out: Activity
SK-MEL-5 [11] = assay: Growth inhibition of human SK-MEL-5 cells assessed as cell growth at 10^-5 M after 48 hrs by sulforhodamine B assay; details: SK-MEL-5, 48 h, read-out: Activity
DU-145 [12] = assay: Growth inhibition of human DU145 cells assessed as cell growth at 10^-6 M after 48 hrs by sulforhodamine B assay; details: DU-145, 48 h, read-out: Activity
HL-60(TB) [13] = assay: Growth inhibition of human HL-60(TB) cells assessed as cell growth at 10^-8 M after 48 hrs by sulforhodamine B assay; details: HL-60, 48 h, read-out: Activity
U-251 = assay: Growth inhibition of human U251 cells assessed as cell growth at 10^-6 M after 48 hrs by sulforhodamine B assay; details: U-251, 48 h, read-out: Activity
OVCAR-8 [14] = assay: Growth inhibition of human OVCAR8 cells assessed as cell growth at 10^-8 M after 48 hrs by sulforhodamine B assay; details: OVCAR-8, 48 h, read-out: Activity
SR = assay: Growth inhibition of human SR cells assessed as cell growth at 10^-7 M after 48 hrs by sulforhodamine B assay; details: read-out: Activity
SK-MEL-5 [15] = assay: Growth inhibition of human SK-MEL-5 cells assessed as cell growth at 10^-8 M after 48 hrs by sulforhodamine B assay; details: SK-MEL-5, 48 h, read-out: Activity
SF-539 = assay: Growth inhibition of human SF539 cells assessed as cell growth at 10^-6 M after 48 hrs by sulforhodamine B assay; details: SF-539, 48 h, read-out: Activity
DU-145 [16] = assay: Growth inhibition of human DU145 cells assessed as cell growth at 10^-5 M after 48 hrs by sulforhodamine B assay; details: DU-145, 48 h, read-out: Activity
HOP-62 [17] = assay: Growth inhibition of human HOP62 cells assessed as cell growth at 10^-5 M after 48 hrs by sulforhodamine B assay; details: HOP-62, 48 h, read-out: Activity
A498 = assay: Growth inhibition of human A498 cells assessed as cell growth at 10^-7 M after 48 hrs by sulforhodamine B assay; details: A498, 48 h, read-out: Activity
MDA-MB-435 = assay: Growth inhibition of human MDA-MB-435 cells assessed as cell growth at 10^-4 M after 48 hrs by sulforhodamine B assay; details: MDA-MB-435, 48 h, read-out: Activity
[18] = Growth inhibition of human HCC2998 cells assessed as cell growth at 10^-4 M after 48 hrs by sulforhodamine B assay; details: HCC 2998, 48 h, read-out: Activity
[19] = Growth inhibition of human HCC2998 cells assessed as cell growth at 10^-5 M after 48 hrs by sulforhodamine B assay; details: HCC 2998, 48 h, read-out: Activity
NCI-H23 = assay: Growth inhibition of human NCI-H23 cells assessed as cell growth at 10^-8 M after 48 hrs by sulforhodamine B assay; details: NCI-H23, 48 h, read-out: Activity
Malme-3M [20] = assay: Growth inhibition of human MALME-3M cells assessed as cell growth at 10^-6 M after 48 hrs by sulforhodamine B assay; details: read-out: Activity
HCT-116 = assay: Growth inhibition of human HCT116 cells assessed as cell growth at 10^-7 M after 48 hrs by sulforhodamine B assay; details: HCT-116, 48 h, read-out: Activity
A549 = assay: Growth inhibition of human A549/ATCC cells assessed as cell growth at 10^-8 M after 48 hrs by sulforhodamine B assay; details: A549, 48 h, read-out: Activity
RXF 393 [21] = assay: Growth inhibition of human RXF393 cells assessed as cell growth at 10^-6 M after 48 hrs by sulforhodamine B assay; details: RXF 393, 48 h, read-out: Activity
SF-268 = assay: Growth inhibition of human SF268 cells assessed as cell growth at 10^-6 M after 48 hrs by sulforhodamine B assay; details: SF-268, 48 h, read-out: Activity
ACHN = assay: Growth inhibition of human ACHN cells assessed as cell growth at 10^-6 M after 48 hrs by sulforhodamine B assay; details: read-out: Activity
HL-60(TB) [22] = assay: Growth inhibition of human HL-60(TB) cells assessed as cell growth at 10^-5 M after 48 hrs by sulforhodamine B assay; details: HL-60, 48 h, read-out: Activity

SMILES	growth at 1 µM (LOX IMVI)	growth at 10 µM (MOLT-4 [1])	growth at 100 µM (Malme-3M [2])	growth at 0.1 µM (OVCAR-8 [3])	growth at 0.1 µM (MDA-MB-231)	growth at 0.1 µM (MDA-MB-468 [4])	growth at 100 µM (RXF 393 [5])	growth at 0.01 µM [6]	growth at 1 µM (MDA-MB-468 [7])	growth at 1 µM (NCI-H522)	growth at 0.01 µM (PC-3)	growth at 100 µM (MOLT-4 [8])	growth at 10 µM (TK-10)	growth at 0.1 µM (HOP-62 [9])	growth at 1 µM (NCI-H460)	growth at 0.01 µM [10]	growth at 10 µM (SK-MEL-5 [11])	growth at 1 µM (DU-145 [12])	growth at 0.01 µM (HL-60(TB) [13])	growth at 1 µM (U-251)	further results
COc1cc(-c2nn(-c3cccc(NC(=O)c4ccc(N5CCOCC5)c(C(F)(F)F)c4)c3)cc2-c2ccncc2)ccc1Cl	29%	9%	-24%	91%	79%	71%	-27%	102%	-9%	17%	92%	2%	14%	90%	16%	101%	-55%	16%	109%	25%	growth at 0.01 µM (OVCAR-8 [14]): 98%; growth at 0.1 µM (SR): 19%; growth at 0.01 µM (SK-MEL-5 [15]): 95%; growth at 1 µM (SF-539): -30%; growth at 10 µM (DU-145 [16]): 13%; growth at 10 µM (HOP-62 [17]): 31%; growth at 0.1 µM (A498): 77%; growth at 100 µM (MDA-MB-435): -34%; growth at 100 µM [18]: -46%; growth at 10 µM [19]: -22%; growth at 0.01 µM (NCI-H23): 97%; growth at 1 µM (Malme-3M [20]): 33%; growth at 0.1 µM (HCT-116): 75%; growth at 0.01 µM (A549): 94%; growth at 1 µM (RXF 393 [21]): -16%; growth at 1 µM (SF-268): 41%; growth at 1 µM (ACHN): 39%; growth at 10 µM (HL-60(TB) [22]): 2%
COc1cc(-c2nn(-c3cccc(NC(=O)c4ccccc4)c3)cc2-c2ccncc2)ccc1Cl	36%	18%	20%	105%	101%	89%	-8%	98%	17%	15%	94%	33%	45%	98%	17%	97%	-60%	44%	96%	40%	growth at 0.01 µM (OVCAR-8 [14]): 98%; growth at 0.1 µM (SR): 79%; growth at 0.01 µM (SK-MEL-5 [15]): 97%; growth at 1 µM (SF-539): 21%; growth at 10 µM (DU-145 [16]): 13%; growth at 10 µM (HOP-62 [17]): 48%; growth at 0.1 µM (A498): 89%; growth at 100 µM (MDA-MB-435): -67%; growth at 100 µM [18]: -13%; growth at 10 µM [19]: 7%; growth at 0.01 µM (NCI-H23): 92%; growth at 1 µM (Malme-3M [20]): 38%; growth at 0.1 µM (HCT-116): 95%; growth at 0.01 µM (A549): 96%; growth at 1 µM (RXF 393 [21]): 35%; growth at 1 µM (SF-268): 47%; growth at 1 µM (ACHN): 44%; growth at 10 µM (HL-60(TB) [22]): 13%
